Experimental data published in patent publication US20150018311A1, “THERAPEUTIC BORON-CONTAINING COMPOUNDS” (priority 2012, published 2015).

Columns and labels:
[1] = test system: E. faecalis; assay: Growth in liquid media in presence of test compound; type: cell-based
Procedure: The strains were grown at 37° C. and after suitable cell concentrations had been reached, 100 μL of each cell suspension was added to a tube with growth media and test compound. Cultivation of the bacteria was then carried out in the presence of each test compound at 37° C. and the tubes examined for visible growth. The compounds were tested at concentrations of either 500 mg/l, 50 mg/l or 5 mg/l. This assay was repeated twice.
Some compounds were only tested against some test organisms. It will be appreciated that the charge of these molecules will depend on the environment, some of the Examples are shown with a suitable counter ion, some without.

[2] = test system: Mycobacterium tuberculosis (H37Rv); assay: as above; type: cell-based
[3] = test system: Staphylococcus aureus (ATCC 25923); assay: as above; type: cell-based
[4] = test system: Pseudomonas aeruginosa (ATCC 27853); assay: as above; type: cell-based
[5] = test system: Escherichia coli (ATCC 25922); assay: as above; type: cell-based
[6] = test system: Candida albicans MYA576 (resistant to nystatin); assay: Filter paper disc antifungal assay on agar plates; type: cell-based; details: 5 mm disc, 37° C. 24 hours
Procedure: (§1) Compound 22 (the chloride salt) of table 1 was dissolved and the solution applied to a filter paper disc of diameter 5 mm. The filter paper discs were placed on plates containing the following strains of Candida albicans:
MYA576 (resistant to nystatin).
(§2) The compound was applied at concentrations of 0.5, 1, 5, 10, 25 and 50 μg/ml. Nystatin and fluconazole at the same concentrations were applied in the same manner. […] All strains were tested at least three times.
(§3) Clearly, the higher the number, the greater the antifungal activity.

[7] = test system: M. tuberculosis; assay: Growth on solid media in presence of test compound; type: cell-based, Mycobacterium tuberculosis; details: result on solid media
[8] = test system: Streptococcus pyogenes (ATCC 19615); assay: Growth in liquid media in presence of test compound; type: cell-based
[9] = test system: Candida albicans (ATCC 90028); assay: as above; type: cell-based
[10] = test system: Candida albicans ATCC38247 (resistant to fluconazole); assay: Filter paper disc antifungal assay on agar plates; type: cell-based; details: 5 mm disc, 37° C. 24 hours
Procedure: as §1
ATCC38247 (resistant to fluconazole)
as §2, §3

[11] = test system: Candida albicans; assay: Filter paper disc antifungal assay, Candida albicans strains overall; type: cell-based
Procedure: as §1, §2, §3

[12] = test system: Candida albicans ATCC90028 (wild type); assay: Filter paper disc antifungal assay on agar plates; type: cell-based; details: 5 mm disc, 37° C. 24 hours
Procedure: as §1
ATCC90028 (“wild type”, i.e. not resistant to nystatin or fluconazole)
as §2, §3

NCCCCC(N)C(=O)NC(CB(O)O)Cc1ccccc1 (stereo not shown) [Compound 34]
Growth in the presence of test compound, E. faecalis ([1]; 5 mg/L): + | Growth in the presence of test compound, E. faecalis ([1]; 50 mg/L): + | Growth in the presence of test compound, E. faecalis ([1]; 500 mg/L): − | Growth in the presence of test compound, M. tuberculosis ([2]; 5 mg/L): + | Growth in the presence of test compound, M. tuberculosis ([2]; 50 mg/L): − | Growth in the presence of test compound, M. tuberculosis ([2]; 500 mg/L): − | Growth in the presence of test compound, S. aureus ([3]; 5 mg/L): + | Growth in the presence of test compound, S. aureus ([3]; 50 mg/L): + | Growth in the presence of test compound, S. aureus ([3]; 500 mg/L): − | Growth in the presence of test compound, P. aeruginosa ([4]; 5 mg/L): + | Growth in the presence of test compound, P. aeruginosa ([4]; 50 mg/L): + | Growth in the presence of test compound, P. aeruginosa ([4]; 500 mg/L): − | Growth in the presence of test compound, E. coli ([5]; 5 mg/L): + | Growth in the presence of test compound, E. coli ([5]; 50 mg/L): + | Growth in the presence of test compound, E. coli ([5]; 500 mg/L): −

CC1(C)C2CC3OB([C@@H](CNC(=O)[C@@H](N)Cc4ccccc4)Cc4ccc5ccccc5c4)O[C@]3(C)C1C2.Cl (stereo partly drawn) [Compound 22, α-naphthyl-β-amino-(−)-pinanedioleboronate-N-]
diameter of the area which did not show any Candida growth ([6]; MYA576, 0.5 μg/ml): 5.33 millimeters | diameter of the area which did not show any Candida growth ([6]; MYA576, 1 μg/ml): 6.67 millimeters | diameter of the area which did not show any Candida growth ([6]; MYA576, 5 μg/ml): 10.67 millimeters | diameter of the area which did not show any Candida growth ([6]; MYA576, 10 μg/ml): 12.67 millimeters | diameter of the area which did not show any Candida growth ([6]; MYA576, 25 μg/ml): 14.33 millimeters | diameter of the area which did not show any Candida growth ([6]; MYA576, 50 μg/ml): 15.67 millimeters | Growth in the presence of test compound, M. tuberculosis ([7]; 5 mg/L): + | Growth in the presence of test compound, M. tuberculosis ([7]; 50 mg/L): + | Growth in the presence of test compound, M. tuberculosis ([7]; 500 mg/L): − | Growth in the presence of test compound, S. aureus ([3]; 5 mg/L): + | Growth in the presence of test compound, S. aureus ([3]; 50 mg/L): ± | Growth in the presence of test compound, S. aureus ([3]; 500 mg/L): + | Growth in the presence of test compound, P. aeruginosa ([4]; 5 mg/L): + | Growth in the presence of test compound, P. aeruginosa ([4]; 50 mg/L): ± | Growth in the presence of test compound, P. aeruginosa ([4]; 500 mg/L): + | Growth in the presence of test compound, S. pyogenes ([8]; 5 mg/L): + | Growth in the presence of test compound, S. pyogenes ([8]; 50 mg/L): − | Growth in the presence of test compound, S. pyogenes ([8]; 500 mg/L): + | Growth in the presence of test compound, E. coli ([5]; 5 mg/L): + | Growth in the presence of test compound, E. coli ([5]; 50 mg/L): + | Growth in the presence of test compound, E. coli ([5]; 500 mg/L): + | Growth in the presence of test compound, C. albicans ([9]; 5 mg/L): + | Growth in the presence of test compound, C. albicans ([9]; 50 mg/L): − | Growth in the presence of test compound, C. albicans ([9]; 500 mg/L): ± | diameter of the area which did not show any Candida growth ([10]; ATCC38247, 0.5 μg/ml): 5 millimeters | diameter of the area which did not show any Candida growth ([10]; ATCC38247, 1 μg/ml): 5.21 millimeters | diameter of the area which did not show any Candida growth ([10]; ATCC38247, 5 μg/ml): 7.43 millimeters | diameter of the area which did not show any Candida growth ([10]; ATCC38247, 10 μg/ml): 12.86 millimeters | diameter of the area which did not show any Candida growth ([10]; ATCC38247, 25 μg/ml): 17.29 millimeters | diameter of the area which did not show any Candida growth ([10]; ATCC38247, 50 μg/ml): 19.14 millimeters | lowest concentration at which activity was shown [11]: 1 µg/mL | diameter of the area which did not show any Candida growth ([12]; ATCC90028, 0.5 μg/ml): 5 millimeters | diameter of the area which did not show any Candida growth ([12]; ATCC90028, 1 μg/ml): 6 millimeters | diameter of the area which did not show any Candida growth ([12]; ATCC90028, 5 μg/ml): 6.875 millimeters | diameter of the area which did not show any Candida growth ([12]; ATCC90028, 10 μg/ml): 11.75 millimeters | diameter of the area which did not show any Candida growth ([12]; ATCC90028, 25 μg/ml): 15.25 millimeters | diameter of the area which did not show any Candida growth ([12]; ATCC90028, 50 μg/ml): 17 millimeters

CC1(C)C2CC3OB(CC(Cc4ccccc4)NC(=O)C(N)CCCCN)OC3(C)C1C2 (stereo not shown) [Compound 1]
Growth in the presence of test compound, E. faecalis ([1]; 5 mg/L): + | Growth in the presence of test compound, E. faecalis ([1]; 50 mg/L): + | Growth in the presence of test compound, E. faecalis ([1]; 500 mg/L): − | Growth in the presence of test compound, M. tuberculosis ([2]; 5 mg/L): − | Growth in the presence of test compound, M. tuberculosis ([2]; 50 mg/L): − | Growth in the presence of test compound, M. tuberculosis ([2]; 500 mg/L): − | Growth in the presence of test compound, S. aureus ([3]; 5 mg/L): + | Growth in the presence of test compound, S. aureus ([3]; 50 mg/L): + | Growth in the presence of test compound, S. aureus ([3]; 500 mg/L): − | Growth in the presence of test compound, P. aeruginosa ([4]; 5 mg/L): + | Growth in the presence of test compound, P. aeruginosa ([4]; 50 mg/L): + | Growth in the presence of test compound, P. aeruginosa ([4]; 500 mg/L): ± | Growth in the presence of test compound, E. coli ([5]; 5 mg/L): + | Growth in the presence of test compound, E. coli ([5]; 50 mg/L): + | Growth in the presence of test compound, E. coli ([5]; 500 mg/L): −

C[C@@H]1[C@H](O)[C@@H](C)/C=C/C=C/CC/C=C/C=C/C=C/C=C/C(O[C@H]2O[C@H](C)[C@@H](O)[C@H](N)[C@@H]2O)CC2O[C@](O)(CC(O)C(O)CCC(O)CC(O)CC(O)CC(=O)O[C@H]1C)CC(O)C2C(=O)O (stereo partly shown) [Nystatin, reference compound]
diameter of the area which did not show any Candida growth ([6]; MYA576, 0.5 μg/ml): 5 millimeters | diameter of the area which did not show any Candida growth ([6]; MYA576, 1 μg/ml): 5 millimeters | diameter of the area which did not show any Candida growth ([6]; MYA576, 5 μg/ml): 5 millimeters | diameter of the area which did not show any Candida growth ([6]; MYA576, 10 μg/ml): 6.17 millimeters | diameter of the area which did not show any Candida growth ([6]; MYA576, 25 μg/ml): 7.33 millimeters | diameter of the area which did not show any Candida growth ([6]; MYA576, 50 μg/ml): 9 millimeters | diameter of the area which did not show any Candida growth ([12]; ATCC90028, 0.5 μg/ml): 6.25 millimeters | diameter of the area which did not show any Candida growth ([12]; ATCC90028, 1 μg/ml): 7.25 millimeters | diameter of the area which did not show any Candida growth ([12]; ATCC90028, 5 μg/ml): 9.25 millimeters | diameter of the area which did not show any Candida growth ([12]; ATCC90028, 10 μg/ml): 14.75 millimeters | diameter of the area which did not show any Candida growth ([12]; ATCC90028, 25 μg/ml): 19.25 millimeters | diameter of the area which did not show any Candida growth ([12]; ATCC90028, 50 μg/ml): 20.25 millimeters
